Source: BindingDB's records for doi:10.1016/j.ejmech.2008.07.020 (Jadavpur University, 2009)

What follows are molecules tested against Reverse transcriptase/RNaseH (Human immunodeficiency virus 1, UniProt Q72547) (assay: Inhibition of HIV1 reverse transcriptase).

IC50 [µM] | SMILES
182 | CCCC1CN(CCC)Cc2cccc3[nH]c(=O)n1c23 (stereo not drawn)
849 | C[C@H]1Cn2c(=O)[nH]c3ccc(N)c(c32)CN1CC1CC1
100 | CCCCN1Cc2cccc3[nH]c(=O)n(c23)C[C@@H]1C
